Measured values taken from publication PMC7255010, “Small-molecule activating SIRT6 elicits therapeutic effects and synergistically promotes anti-tumor activity of vitamin D3 in colorectal cancer” (Theranostics, 2020).
Where two headings read alike, the source gives them in different places.

How the values were obtained:
Assay type in all cases: cell-based
[1] = system: CRC cell lines (HCT116, HT29, SW480); assay: LDH assay of cytotoxicity in CRC cell lines; details: 48 h, pharmacological concentrations
Protocol: Cell cytotoxicity was assessed by measuring LDH release from damaged or dead cells using a Cytotoxicity LDH Assay Kit-WST (Dojindo) following the manufacturer's instructions. Briefly, 5 × 10^3 cells per well were plated in 96-well plates. […] The final DMSO concentration in the medium was 0.1%. The amount of LDH leakage from the cells was determined by measuring the absorbance at 490 nm using a microplate reader (Synergy H4 Hybrid Reader, BioTek). The percentage of cytotoxicity was calculated as follows: [(test sample - low control)/ (high control - low control)] × 100, where low control is the absorbance of the culture medium without any added extract, and high control is the absorbance of the culture medium in which the cells were treated with 1% (v/v) Triton X-100 to achieve 100% LDH release. Each data point is presented as the mean ± s.d. of three independent experiments.

[2] = system: LOVO; assay: Cell proliferation, CCK-8; details: Homo sapiens, CCK8, 48 h
Protocol: (§1) Cell proliferation was evaluated using a Cell Counting Kit-8 (CCK-8) (Dojindo) following the manufacturer's instructions. Briefly, CRC cells were plated in 96-well plates at a density of 5 × 10^3 cells per well. […] Cells treated with DMSO were used as the […] controls, and the final DMSO concentration in the medium was 0.1%. After 48 h of treatment, 10 μL of CCK-8 solution was added to every well and incubated for 1 h at 37 °C. Then, a microplate reader (Synergy H4 Hybrid Reader, BioTek) was used to measure the absorbance of the solvent at 450 nm. The background of drug and culture medium has been deducted in each well. The relative cell proliferation of each treatment group was expressed as the percentage change relative to the […] control group. Each data point is the mean ± s.d. of two or three independent experiments.

[3] = system: HCT8; assay: Cell proliferation, CCK-8; details: Homo sapiens, HCT-8; HCT8, CCK8, 48 h
Protocol: as §1

[4] = system: HCT116; assay: Cell proliferation, CCK-8; details: Homo sapiens, HCT-116
Protocol: as §1

[5] = system: NCI-H508; assay: Cell proliferation, CCK-8; details: Homo sapiens; NCI-H508, CCK8, 48 h
Protocol: as §1

[6] = system: LS1034; assay: Cell proliferation, CCK-8; details: Homo sapiens, LS-1034; LS1034, CCK8, 48 h
Protocol: as §1

[7] = system: DLD-1; assay: Cell proliferation, CCK-8; details: Homo sapiens; DLD-1, CCK8, 48 h
Protocol: as §1

[8] = system: HCT15; assay: Cell proliferation, CCK-8; details: Homo sapiens, HCT-15; HCT15, CCK8, 48 h
Protocol: as §1

[9] = system: LS180; assay: Cell proliferation, CCK-8; details: Homo sapiens; LS180, CCK8, 48 h
Protocol: as §1

[10] = system: SKCO1; assay: Cell proliferation, CCK-8; details: Homo sapiens, SK-CO-1; SKCO1, CCK8, 48 h
Protocol: as §1

[11] = system: Caco2; assay: Cell proliferation, CCK-8; details: Homo sapiens, Caco-2; Caco2, CCK8, 48 h
Protocol: as §1

[12] = system: SW480; assay: Cell proliferation, CCK-8; details: Homo sapiens; SW480, CCK8, 48 h
Protocol: as §1

[13] = system: SW620; assay: Cell proliferation, CCK-8; details: Homo sapiens, SW-620; SW620, CCK8, 48 h
Protocol: as §1

[14] = system: LS174T; assay: Cell proliferation, CCK-8; details: Homo sapiens, CCK8, 48 h
Protocol: as §1

[15] = system: SW1116; assay: Cell proliferation, CCK-8; details: Homo sapiens, SW 1116; SW1116, CCK8, 48 h
Protocol: as §1

[16] = system: LS123; assay: Cell proliferation, CCK-8; details: Homo sapiens, LS-123; LS123, CCK8, 48 h
Protocol: as §1

[17] = system: SW1417; assay: Cell proliferation, CCK-8; details: Homo sapiens; SW1417, CCK8, 48 h
Protocol: as §1

[18] = system: LS513; assay: Cell proliferation, CCK-8; details: Homo sapiens, LS-513; LS513, CCK8, 48 h
Protocol: as §1

[19] = system: HT29; assay: Cell proliferation, CCK-8; details: Homo sapiens, HT-29; HT29, CCK8, 48 h
Protocol: as §1

[20] = system: SW1463; assay: Cell proliferation, CCK-8; details: Homo sapiens; SW1463, CCK8, 48 h
Protocol: as §1

[21] = system: RKO; assay: Cell proliferation, CCK-8; details: Homo sapiens, CCK8, 48 h
Protocol: as §1

[22] = system: Colo205; assay: Cell proliferation, CCK-8; details: Homo sapiens, COLO 205; Colo205, CCK8, 48 h
Protocol: as §1

[23] = system: SW48; assay: Cell proliferation, CCK-8; details: Homo sapiens; SW48, CCK8, 48 h
Protocol: as §1

[24] = system: NCI-H716; assay: Cell proliferation, CCK-8; details: Homo sapiens; NCI-H716, CCK8, 48 h
Protocol: as §1

[25] = system: Colo320DM; assay: Cell proliferation, CCK-8; details: Homo sapiens, COLO 320DM, CCK8, 48 h
Protocol: as §1

[26] = system: T84; assay: Cell proliferation, CCK-8; details: Homo sapiens; T84, CCK8, 48 h
Protocol: as §1

[27] = system: Colo201; assay: Cell proliferation, CCK-8; details: Homo sapiens, COLO 201; Colo201, CCK8, 48 h
Protocol: as §1

Cc1cc(F)c(Br)cc1NS(=O)(=O)c1ccc(NS(=O)(=O)c2cc(Cl)cc(Cl)c2)cc1CN1CCOC[C@H]1C [MDL-811]
cytotoxicity (LDH release) [1]: minimal cytotoxic effect
IC50 [2]: 7.8 ± 0.2 µM
IC50 [3]: 20.1 ± 2 µM
IC50 ([4]; HCT116, CCK8, 48 h, read-out: IC50 ± s.d.): 4.7 ± 0.2 µM
IC50 ([4]; HCT116, CCK-8, 48 h, Figure S6, mean ± s.e.m. of three experiments, read-out: IC50): 4.8 ± 0.2 µM
IC50 [5]: 9.7 ± 1.2 µM
IC50 [6]: 31.9 ± 0.7 µM
IC50 [7]: 18 ± 0.1 µM
IC50 [8]: 20.5 ± 1.3 µM
IC50 [9]: 19.1 ± 0.4 µM
IC50 [10]: 12.1 ± 0.1 µM
IC50 [11]: 28.7 ± 1.7 µM
IC50 [12]: 9.3 ± 1.7 µM
IC50 [13]: 16.7 ± 1.4 µM
IC50 [14]: 23.8 ± 2 µM
IC50 [15]: 5.7 ± 0.3 µM
IC50 [16]: 19.8 ± 0.5 µM
IC50 [17]: 15.1 ± 1.9 µM
IC50 [18]: 28.6 ± 0.6 µM
IC50 [19]: 7 ± 1.1 µM
IC50 [20]: 13 ± 1.5 µM
IC50 [21]: 12.3 ± 1.8 µM
IC50 [22]: 38.1 ± 4.4 µM
IC50 [23]: 10.8 ± 1.5 µM
IC50 [24]: 61 ± 2.3 µM
IC50 [25]: 33.2 ± 0.9 µM
IC50 [26]: 13 ± 1.4 µM
IC50 [27]: 20.3 ± 1.4 µM
